Holding throughout (test): inhibition of tumour cell growth, NCI panel, 48 h
Assay [1] relates to HCT-15.
Assay [2] has as its system SN12C.
Assay [3] relates to ACHN.
Assay [4] has as its system LXFL 529.
Assay [5] relates to MOLT-4.
In assay [6] the test system is SK-MEL-5.
Assay [7] concerns SK-MEL-2.
The test system of assay [8] is HCT-116.
Assay [9] concerns EKVX.
The subject of assay [10] is HOP-92.
Assay [11] deals with OVCAR-8.
Assay [12] relates to UO-31.
The test system of assay [13] is NCI-H23.
Assay [14] deals with RPMI-8226.
Assay [15] relates to HL-60.
The test system of assay [16] is OVCAR-4.
The subject of assay [17] is TK-10.

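Cultured in 96-well plates, cells were exposed to test compound for 48 hours across five concentrations. At the GI50, growth is halved.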 The source made the active and inactive calls. Cut-off read from the data, not from the text of the source: active = GI50 up to about 1.1 µM and inactive = higher. Bounds are passed on as bounds.

Regarding `COc1cc2c(c(OC)c1OC)-c1ccc(SC)c(=O)cc1C(CC(=O)Oc1cccc(C#N)c1)C2` (stereo not given), the GI50 in assay [1] is 0.33 µM; in [2] it was 0.48 µM (active); in [3] it was 0.593 µM (active); in [4], 0.516 µM (active); in [5], 0.536 µM (active); in assay [6] it was 0.313 µM (active). Also, the GI50 in assay [7] is 0.348 µM (active); in [8], 0.387 µM (active); in [9], 0.574 µM (active); in [10], 2.31 µM (inactive); in assay [11] it was 0.423 µM (active); in [12], 1.67 µM (inactive). In addition, the GI50 is 0.454 µM (active) in assay [13], 0.583 µM (active) in assay [14], 0.254 µM (active) in [15] and 3.32 µM (inactive) in assay [16].
As to `O=C1OC(O)C(Oc2c(Cl)cccc2Cl)=C1Cl` (stereo not given), the GI50 in [1] was 15.6 µM; in assay [2], 17 µM (inactive); in assay [3], 17.2 µM (inactive); in assay [4] it was 16.6 µM (inactive); in [5], 21.8 µM (inactive); in assay [6] it was 14.2 µM (inactive). Also, the GI50 in assay [7] was 15.3 µM (inactive); in assay [8], 14.8 µM (inactive); in [9] it was 29.6 µM (inactive); in assay [10], 18 µM (inactive); in [17] it was 23.6 µM (inactive); in assay [11] it was 17.5 µM (inactive). Moreover, the GI50 is 14.1 µM (inactive) in assay [12], 17.7 µM (inactive) in assay [13], 18.1 µM (inactive) in assay [14] and 20 µM (inactive) in [15].
In the case of `CC1(C)CC(=O)C(CC2C(=O)c3ccccc3C2=O)C(=O)C1`, the GI50 in assay [1] was over 100 µM; in assay [2] it was > 100 µM (inactive); in [3] it was > 100 µM (inactive); in assay [4], > 100 µM (inactive); in [5], > 100 µM (inactive); in assay [6], > 100 µM (inactive). Further, the GI50 in [7], in assay [8], in assay [9], in assay [10], in assay [17] and in assay [11] was > 100 µM (inactive) in each case. In addition, the GI50 in assay [12], in [13], in [15] and in assay [16] was > 100 µM (inactive) throughout.
For the compound `Cc1cc(NS(=O)(=O)c2ccc(NC(=O)c3ccc(Cl)c4c(Nc5ccc(S(N)(=O)=O)cc5)c5ccccc5nc34)cc2)no1`, the GI50 in assay [1] is over 100 µM; in assay [2] it was 23.1 µM (inactive); in assay [3], 29.1 µM (inactive); in [4], 15.9 µM (inactive); in assay [5] it was 22.5 µM (inactive); in [6] it was 18.2 µM (inactive). Further, the GI50 in assay [8] was 15.2 µM (inactive); in assay [9], 33.1 µM (inactive); in assay [10] it was 19.7 µM (inactive); in assay [17] it was 27 µM (inactive); in assay [11] it was 17.9 µM (inactive); in assay [12] it was 23.2 µM (inactive). For the same compound, the GI50 in assay [13] was 23.4 µM (inactive); in assay [15], 13.3 µM (inactive); in assay [16], 24.3 µM (inactive).
Regarding `CC(=O)NC(CCCCN)C(=O)NCc1ccccc1` (stereo not given), the GI50 in [1] was over 100 µM; in [2], > 100 µM (inactive); in [3], > 100 µM (inactive); in assay [4], > 100 µM (inactive); in assay [5], > 100 µM (inactive); in [6], > 100 µM (inactive). Moreover, the GI50 in [7], in assay [8], in assay [9], in assay [10], in assay [17] and in assay [11] was > 100 µM (inactive) in each case. The GI50 in assay [12], in [13], in [14] and in assay [16] was > 100 µM (inactive) throughout.
Turning to `COc1cccc2c1C(=O)c1c(O)c3c(c(O)c1C2=O)C[C@@](O)(C(C)O)C[C@@H]3OC1CC(N)C(O)C(C)O1` (stereo not given in full), the GI50 was 8.28 µM in [1]; 0.993 µM (active) in assay [2]; 1.51 µM (inactive) in assay [3]; 1.02 µM (active) in assay [4]; 0.105 µM (active) in [5]; 0.834 µM (active) in [6]. Also, the GI50 in [7] was 1.41 µM (inactive); in assay [8], 0.805 µM (active); in assay [9], 1.18 µM (inactive); in assay [10] it was 0.502 µM (active); in assay [17], 2.5 µM (inactive); in [11], 1.14 µM (inactive). For the same compound, the GI50 was 38.5 µM (inactive) in assay [12], 0.553 µM (active) in assay [13], 0.171 µM (active) in [15] and 4.99 µM (inactive) in assay [16].
On to `COc1cc(Br)c(CC2(C#N)c3ccccc3C3C(N2C(=O)c2ccccc2)C3(Cl)Cl)cc1OC` (stereo not given), for which the GI50 in assay [1] is over 65.5 µM; in assay [2], > 65.5 µM (inactive); in [3], > 65.5 µM (inactive); in assay [4], 4.01 µM (inactive); in assay [5], 2.03 µM (inactive); in assay [6], 2.94 µM (inactive). In addition, the GI50 in assay [7], in [8], in assay [9], in [10], in assay [17] and in assay [11] was > 65.5 µM (inactive) in each case. The GI50 in assay [12] is 50.6 µM (inactive); in [13] it was > 65.5 µM (inactive); in assay [14] it was 0.935 µM (active); in assay [15] it was 1.51 µM (inactive).
As for `CCc1cc(Cc2ccc(C)c(NC(=O)C(=O)C3C(=O)NC(=O)NC3=O)c2CC)cc(C)c1NC(=O)C(=O)C1C(=O)NC(=O)NC1=O`, the GI50 was over 100 µM in assay [1]; > 100 µM (inactive) in assay [3]; > 100 µM (inactive) in assay [4]; 93.5 µM (inactive) in [5]; > 100 µM (inactive) in assay [6]; > 100 µM (inactive) in [7]. Moreover, the GI50 in assay [8], in [9], in assay [17], in assay [11], in [12] and in [13] was > 100 µM (inactive) throughout. Moreover, the GI50 in assay [14], in assay [15] and in assay [16] was > 100 µM (inactive) throughout.
For `COc1ccc2nc(NC(=O)C(=O)C(C(=O)c3ccccc3-c3ccccc3)C3OC(=O)c4ccccc43)sc2c1` (stereo not given), the GI50 was 26 µM (inactive) in [3]; 13.5 µM (inactive) in assay [4]; 19.5 µM (inactive) in [5]; 16.2 µM (inactive) in [6]; 13.6 µM (inactive) in assay [7]; 14.5 µM (inactive) in assay [8]. In addition, the GI50 in [9] is 21.7 µM (inactive); in assay [10], 16.5 µM (inactive); in assay [17], 25.2 µM (inactive); in assay [11], 20.1 µM (inactive); in [12] it was 20.7 µM (inactive); in assay [13], 13.8 µM (inactive). Besides, the GI50 in assay [14] is 10.7 µM (inactive); in assay [15], 16 µM (inactive).

Values taken from ChEMBL document CHEMBL1201862, “PubChem BioAssay data set” (2004).
